Reference: patent publication US5436233A, “4-aminoquinazoline derivatives” (Ono Pharmaceutical Co., Ltd., priority 1993, dated 1995)
Where a name gives a salt, the structure may show the parent alone.

target: cGMP-PDE (Homo sapiens, UniProt O76074); assay: Inhibitory effect on cGMP-PDE; type: biochemical; conditions: PDE IC isolated from human platelets; 3H-cGMP substrate 0.2 mM; pH 8.0; DMSO 2.5%
Protocol: Typically, connective tissue and adventitia were removed and 1-2 units of platelets were suspended in 10 volumes of buffer A (20 mM Tris-HCl, pH 7.5, containing 2 mM magnesium acetate, 1 mM dithiothreitol, and 5 mM Na2EDTA) using a Brinkman polytron. The proteinase inhibitors leupeptin, pepstatin A, and phenylmethyl-sulfonyl fluoride (PMSF) were also included in this buffer (final concentration of 100 nM each). The homogenate was centrifuged at 100,000g for 60 minutes. The supernatant was then removed and filtered through four layers of cheesecloth. The supernatant was applied to a DWAE-Trisacryl M column. The column was washed with several bed volumes of buffer B (20 mM Tris-HCl, pH 7.5, containing 2 mM magnesium acetate, 1 mM dithiothreitol, and proteinase inhibitors) and eluted by two successive linear NaCl gradients (0.05-0.15M, 300 ml total; 0.15-0.40M, 200 ml total). Five milliliter fractions were collected and assayed for cyclic GMP PDE activity.
The concentration of substrate (^3 H-cGMP) was 0.2 mM. Compounds of the present invention were dissolved in dimethyl sulfoxide (DMSO) at a final concentration of 2.5%. This concentration of DMSO inhibited enzyme activity by approximately 10%.

In order of falling IC50:
1. CN(C)c1ccc(CNc2nc(-c3cccnc3)nc3ccccc23)cc1 [3(o), 4-(4-(N,N-dimethylamino)phenylmethyl)amino-2-(3-pyridyl)quinazoline trihydrochloride]  2.4 µM
2. c1ccc(CNc2nc(Cn3ccnc3)nc3ccccc23)cc1 [6(b), 4-phenylmethylamino-2-((1-imidazolyl)methyl)quinazoline dihydrochloride]  0.3 µM
3. C(=C\c1nc(NCc2ccccc2)c2ccccc2n1)/c1cccnc1 [Example 7, 4-phenylmethylamino-2-(2-(3-pyridyl)vinyl)quinazoline]  0.2 µM
4. CN(C)S(=O)(=O)c1ccc2nc(-n3ccnc3)nc(NCc3ccccc3)c2c1 [6(j), 6-dimethylaminosulfonyl-4-phenylmethylamino-2-(1-imidazolyl)quinazoline hydrochloride]  0.135 µM
5. C#Cc1ccc2nc(-n3ccnc3)nc(NCCOC)c2c1 [Example 18, 6-ethynyl-4-(2-methoxyethyl)amino-2-(1-imidazolyl)quinazoline]  0.046 µM
6. C#Cc1ccc2nc(-n3ccnc3)nc(NCc3ccccc3)c2c1 [18(b), 2-(1-imidazolyl)-4-phenylmethylamino-6-ethynylquinazoline dihydrochloride]  0.00053 µM

target: T1, TXA2 synthetase (Rattus norvegicus, UniProt P49430); assay: Inhibitory effect on TXA2 synthetase (TXB2 synthesis in A23187-stimulated heparinized whole blood); type: cell-based, Male Wistar rats; conditions: 37° C, Ca ionophore A23187 30 μM, TXB2 by EIA
T1 construct: whole blood was collected from abdominal aorta; from tissue; host or cells: freshly drawn heparinized whole blood of male Wistar rats
T1 sequence (P49430 1-533): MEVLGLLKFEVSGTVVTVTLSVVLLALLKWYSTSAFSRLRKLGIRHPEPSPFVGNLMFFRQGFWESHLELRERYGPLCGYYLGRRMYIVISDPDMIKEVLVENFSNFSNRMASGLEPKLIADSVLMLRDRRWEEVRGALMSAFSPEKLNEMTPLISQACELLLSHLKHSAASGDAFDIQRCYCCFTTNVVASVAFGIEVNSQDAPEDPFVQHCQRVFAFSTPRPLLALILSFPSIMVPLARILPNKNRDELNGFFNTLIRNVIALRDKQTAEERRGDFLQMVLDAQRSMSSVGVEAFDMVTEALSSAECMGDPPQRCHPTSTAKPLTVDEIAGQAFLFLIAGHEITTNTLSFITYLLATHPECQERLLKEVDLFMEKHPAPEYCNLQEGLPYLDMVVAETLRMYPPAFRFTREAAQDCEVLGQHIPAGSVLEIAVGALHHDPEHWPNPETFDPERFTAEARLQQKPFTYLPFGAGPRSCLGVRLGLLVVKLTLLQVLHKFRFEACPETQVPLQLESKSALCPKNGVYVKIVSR
Protocol: Male Wistar rats were starved overnight. Five hundreds microliter of heparinized (10 U/mL) whole blood was collected from abdominal aorta using polyethylene syringe (needle: 22 or 26G). The blood freshly drawn from animal was preincubated with 5 μL of test compound at 37° C. Five minutes later, 2.5 μL of 6 mM of Ca ionophore A23187 (final concentration of 30 μM) was added into tube, and incubation mixture was further incubated for 15 min. The reaction was terminated by centrifugation of tubes at 12,000 rpm for 2 min. TXB2 content in the supernatant was determined by EIA as follows.
One milliliter of 0.5M glycine-HCl buffer (pH 3.2) was added to 100 μL of sample. The samples were mixed well and centrifuged at 1,700 G for 10 min at 4° C. The extracted supernatant was applied to a SEP-PAK (registered Trade Mark) C18 cartridge (Waters Assoc.). After washing with 10 mL of distilled water followed by 10 mL each of 15% ethanol and petroleum ether, the sample was eluted with 3 mL of ethyl acetate. The ethyl acetate fraction was evaporated to dryness under gentle N2 stream and the residue was dissolved in EIA buffer (final volume of 1 mL) following the addition of 300 μL of 0.01M NaHCO3 -NaOH buffer (pH 10.0). EIA for TXB2 was carried out according to a legend attached to the kit (Chyman Chemical Co., Inc.). Overall recovery of TXB^2 in this extraction procedure was 90%. […]

Compound `C#Cc1ccc2nc(-n3ccnc3)nc(NCCOC)c2c1` [Example 18, 6-ethynyl-4-(2-methoxyethyl)amino-2-(1-imidazolyl)quinazoline] has an IC50 of 2.4 µM.
